The source of these data is ChEMBL document CHEMBL5137068, “Discovery of Hexahydrofuro[3,2-b]furans as New Kinase-Selective and Orally Bioavailable JAK3 Inhibitors for the Treatment of Leukemia Harboring a JAK3 Activating Mutant” (J Med Chem, 2022).

The structures appear in SMILES notation. Activity calls are given as the source filed them. The rule behind the calls is not given here.

Data set [1] can be described thus: Half life in 12 hr fasted SPF Sprague-Dawley rat at 15 mg/kg, po upon 2 hrs fasting post-administration measured upto 24 hrs. It counts as ADME, organism-based. Particulars: in vivo.
Data set [2] can be described thus: Cmax in 12 hr fasted SPF Sprague-Dawley rat at 5 mg/kg, iv upon 2 hrs fasting post-administration measured upto 24 hrs. It counts as ADME, organism-based. Further details: dose 5 mg/kg, time < 24 hrs, route iv. To be noted: in vivo.
In data set [3] the target is NUAK family SNF1-like kinase 1 (Homo sapiens) (UniProt O60285). Nature of the data set: Inhibition of human ARK5 at 0.5 uM relative to control.
Data set [4] concerns the target T1, Tyrosine-protein kinase JAK3 (Homo sapiens) (UniProt P52333).
T1 sequence (whole entry): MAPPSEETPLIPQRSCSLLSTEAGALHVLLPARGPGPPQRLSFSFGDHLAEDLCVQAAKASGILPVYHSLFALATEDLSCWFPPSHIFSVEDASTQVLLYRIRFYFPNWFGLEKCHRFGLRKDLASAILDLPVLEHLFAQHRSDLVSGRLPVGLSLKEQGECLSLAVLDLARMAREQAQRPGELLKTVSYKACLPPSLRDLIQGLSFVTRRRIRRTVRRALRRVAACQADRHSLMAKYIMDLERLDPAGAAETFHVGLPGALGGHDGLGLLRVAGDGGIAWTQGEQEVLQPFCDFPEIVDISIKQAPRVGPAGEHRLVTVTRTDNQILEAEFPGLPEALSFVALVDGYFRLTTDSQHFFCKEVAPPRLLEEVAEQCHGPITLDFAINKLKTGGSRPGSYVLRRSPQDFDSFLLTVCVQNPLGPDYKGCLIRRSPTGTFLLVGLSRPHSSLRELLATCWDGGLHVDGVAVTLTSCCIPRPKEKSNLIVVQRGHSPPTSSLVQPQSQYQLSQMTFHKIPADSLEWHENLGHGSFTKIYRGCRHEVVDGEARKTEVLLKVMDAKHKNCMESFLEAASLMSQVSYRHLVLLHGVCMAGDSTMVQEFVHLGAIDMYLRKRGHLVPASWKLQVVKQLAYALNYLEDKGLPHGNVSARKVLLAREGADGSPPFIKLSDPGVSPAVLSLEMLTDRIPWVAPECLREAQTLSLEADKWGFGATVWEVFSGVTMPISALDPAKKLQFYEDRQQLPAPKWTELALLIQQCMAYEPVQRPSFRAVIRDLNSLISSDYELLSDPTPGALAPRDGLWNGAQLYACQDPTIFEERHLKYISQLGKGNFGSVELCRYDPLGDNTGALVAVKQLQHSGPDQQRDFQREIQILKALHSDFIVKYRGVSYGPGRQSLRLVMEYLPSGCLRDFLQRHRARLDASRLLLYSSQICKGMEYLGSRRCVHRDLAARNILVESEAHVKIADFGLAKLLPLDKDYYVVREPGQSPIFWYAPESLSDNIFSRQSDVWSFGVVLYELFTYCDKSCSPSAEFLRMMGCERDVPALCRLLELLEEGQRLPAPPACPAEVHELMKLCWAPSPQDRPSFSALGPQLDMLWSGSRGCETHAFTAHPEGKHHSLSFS
Nature of the data set: Inhibition of human JAK3 at 0.5 uM relative to control.

Data set [5] addresses Non-receptor tyrosine-protein kinase TYK2 (Homo sapiens, UniProt P29597). Nature of the data set: Inhibition of human TYK2 at 0.5 uM relative to control.
Data set [6] deals with Receptor-type tyrosine-protein kinase FLT3 (Homo sapiens, UniProt P36888). Nature of the data set: Inhibition of human FLT3.
Chain of Receptor-type tyrosine-protein kinase FLT3 (P36888 whole entry): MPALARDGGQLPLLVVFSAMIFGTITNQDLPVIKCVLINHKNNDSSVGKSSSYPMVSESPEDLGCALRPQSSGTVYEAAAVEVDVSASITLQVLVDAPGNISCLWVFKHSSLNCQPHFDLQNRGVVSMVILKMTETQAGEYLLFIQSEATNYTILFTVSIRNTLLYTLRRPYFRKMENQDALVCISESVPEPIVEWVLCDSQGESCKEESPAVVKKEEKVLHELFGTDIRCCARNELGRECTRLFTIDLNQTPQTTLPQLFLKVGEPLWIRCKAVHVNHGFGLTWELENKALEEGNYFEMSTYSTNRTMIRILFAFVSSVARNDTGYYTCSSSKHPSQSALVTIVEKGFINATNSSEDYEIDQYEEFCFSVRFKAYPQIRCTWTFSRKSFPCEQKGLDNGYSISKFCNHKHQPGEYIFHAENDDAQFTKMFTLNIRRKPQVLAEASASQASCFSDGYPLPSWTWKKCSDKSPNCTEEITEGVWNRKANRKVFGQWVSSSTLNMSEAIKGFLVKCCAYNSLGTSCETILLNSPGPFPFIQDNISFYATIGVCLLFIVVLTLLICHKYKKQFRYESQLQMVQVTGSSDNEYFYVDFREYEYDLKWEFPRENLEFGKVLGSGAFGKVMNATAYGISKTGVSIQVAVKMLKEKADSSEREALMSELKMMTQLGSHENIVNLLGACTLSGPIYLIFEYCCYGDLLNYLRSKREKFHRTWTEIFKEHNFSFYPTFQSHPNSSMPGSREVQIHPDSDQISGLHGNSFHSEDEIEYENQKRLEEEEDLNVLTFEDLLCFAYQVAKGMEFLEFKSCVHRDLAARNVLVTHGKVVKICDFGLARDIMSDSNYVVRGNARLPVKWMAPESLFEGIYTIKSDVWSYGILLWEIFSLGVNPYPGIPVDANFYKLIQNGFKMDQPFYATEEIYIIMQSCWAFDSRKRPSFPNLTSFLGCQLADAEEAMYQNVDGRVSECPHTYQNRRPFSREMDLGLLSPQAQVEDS
For data set [7], the target named is T2, Tyrosine-protein kinase JAK3 (Homo sapiens, UniProt P52333).
T2 sequence (P52333 whole entry): T1 sequence (whole entry)
Nature of the data set: Inhibition of human JAK3.

Data set [8] concerns the target Tyrosine-protein kinase Blk (Homo sapiens) (UniProt P51451). Nature of the data set: Inhibition of BLK (unknown origin) at 0.5 uM relative to control.
In data set [9] the target is Cytoplasmic tyrosine-protein kinase BMX (Homo sapiens) (UniProt P51813). Nature of the data set: Inhibition of BMX (unknown origin) at 0.5 uM relative to control.
Chain of Cytoplasmic tyrosine-protein kinase BMX (Homo sapiens) (P51813 whole entry): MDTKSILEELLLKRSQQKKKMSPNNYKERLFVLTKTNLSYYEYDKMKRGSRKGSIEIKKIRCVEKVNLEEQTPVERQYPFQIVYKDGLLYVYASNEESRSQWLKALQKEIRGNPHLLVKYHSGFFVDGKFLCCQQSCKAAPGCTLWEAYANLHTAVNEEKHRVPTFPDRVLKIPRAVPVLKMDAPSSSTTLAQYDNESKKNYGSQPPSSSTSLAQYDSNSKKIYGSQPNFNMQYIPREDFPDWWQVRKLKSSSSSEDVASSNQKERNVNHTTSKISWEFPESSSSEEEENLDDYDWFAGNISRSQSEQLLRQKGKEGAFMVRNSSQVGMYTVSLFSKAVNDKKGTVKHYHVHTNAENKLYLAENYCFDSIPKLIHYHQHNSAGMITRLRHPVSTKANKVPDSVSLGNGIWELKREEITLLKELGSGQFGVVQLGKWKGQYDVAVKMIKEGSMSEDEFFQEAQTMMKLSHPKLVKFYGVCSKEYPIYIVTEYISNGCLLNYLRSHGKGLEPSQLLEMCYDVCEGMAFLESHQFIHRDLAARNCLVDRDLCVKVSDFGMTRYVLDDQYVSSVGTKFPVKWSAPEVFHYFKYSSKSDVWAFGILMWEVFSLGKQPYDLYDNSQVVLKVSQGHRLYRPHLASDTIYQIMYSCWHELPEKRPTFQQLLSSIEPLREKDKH
The target of data set [10] is Tyrosine-protein kinase Tec (Homo sapiens) (UniProt P42680). Nature of the data set: Inhibition of TEC (unknown origin) at 0.5 uM relative to control.
For data set [11], the target named is Receptor tyrosine-protein kinase erbB-4 (Homo sapiens) (UniProt Q15303). Nature of the data set: Inhibition of HER4 (unknown origin) at 0.5 uM relative to control.
Chain of Receptor tyrosine-protein kinase erbB-4 (Homo sapiens) (Q15303 whole entry): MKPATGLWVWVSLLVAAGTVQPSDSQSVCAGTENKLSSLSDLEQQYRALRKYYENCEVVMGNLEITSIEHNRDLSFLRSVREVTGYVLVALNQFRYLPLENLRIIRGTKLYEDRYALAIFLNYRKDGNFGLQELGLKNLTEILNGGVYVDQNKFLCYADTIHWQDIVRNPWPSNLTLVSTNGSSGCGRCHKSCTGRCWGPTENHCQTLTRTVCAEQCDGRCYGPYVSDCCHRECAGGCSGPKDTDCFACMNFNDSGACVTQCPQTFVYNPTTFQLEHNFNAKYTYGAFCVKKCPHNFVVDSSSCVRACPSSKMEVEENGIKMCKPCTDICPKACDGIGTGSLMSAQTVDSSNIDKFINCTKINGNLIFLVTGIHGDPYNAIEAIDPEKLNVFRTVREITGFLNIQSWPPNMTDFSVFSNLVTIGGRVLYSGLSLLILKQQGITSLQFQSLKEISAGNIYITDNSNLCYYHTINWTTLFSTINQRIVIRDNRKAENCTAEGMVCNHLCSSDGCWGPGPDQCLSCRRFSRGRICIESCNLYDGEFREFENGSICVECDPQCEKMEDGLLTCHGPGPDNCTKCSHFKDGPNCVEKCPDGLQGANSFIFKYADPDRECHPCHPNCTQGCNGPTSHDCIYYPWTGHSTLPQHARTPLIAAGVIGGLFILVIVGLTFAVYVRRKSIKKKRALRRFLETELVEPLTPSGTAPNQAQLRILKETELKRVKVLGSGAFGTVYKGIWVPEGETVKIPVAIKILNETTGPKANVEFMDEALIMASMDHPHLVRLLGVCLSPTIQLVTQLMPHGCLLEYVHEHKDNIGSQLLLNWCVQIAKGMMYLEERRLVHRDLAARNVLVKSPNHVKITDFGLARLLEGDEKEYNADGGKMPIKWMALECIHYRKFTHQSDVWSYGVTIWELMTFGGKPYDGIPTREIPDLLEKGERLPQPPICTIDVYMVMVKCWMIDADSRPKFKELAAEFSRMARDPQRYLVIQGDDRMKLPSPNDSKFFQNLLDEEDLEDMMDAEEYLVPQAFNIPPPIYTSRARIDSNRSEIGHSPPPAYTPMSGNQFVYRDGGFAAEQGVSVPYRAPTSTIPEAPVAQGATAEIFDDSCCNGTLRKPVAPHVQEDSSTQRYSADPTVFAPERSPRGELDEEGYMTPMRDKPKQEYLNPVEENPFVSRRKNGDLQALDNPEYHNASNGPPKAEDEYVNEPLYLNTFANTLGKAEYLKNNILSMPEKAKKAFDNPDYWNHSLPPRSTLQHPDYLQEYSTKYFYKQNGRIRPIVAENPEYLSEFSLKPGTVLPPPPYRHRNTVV
Data set [12] has as its target Tyrosine-protein kinase BTK (Homo sapiens) (UniProt Q06187). Nature of the data set: Inhibition of BTK (unknown origin) at 0.5 uM relative to control.
The target of data set [13] is Signal transducer and activator of transcription 3 (Homo sapiens) (UniProt P40763). Nature of the data set: Inhibition of STAT3 activation in human U-937 cells assessed as decrease in P-STAT3 at 100 uM by Western blot analysis. It counts as cell-based. Particulars: time 0-24 hrs, TDE = time-dependent effect. For orientation: Immunoblotting shows a protein as a band on a membrane.
Chain of Signal transducer and activator of transcription 3 (Homo sapiens) (P40763 whole entry): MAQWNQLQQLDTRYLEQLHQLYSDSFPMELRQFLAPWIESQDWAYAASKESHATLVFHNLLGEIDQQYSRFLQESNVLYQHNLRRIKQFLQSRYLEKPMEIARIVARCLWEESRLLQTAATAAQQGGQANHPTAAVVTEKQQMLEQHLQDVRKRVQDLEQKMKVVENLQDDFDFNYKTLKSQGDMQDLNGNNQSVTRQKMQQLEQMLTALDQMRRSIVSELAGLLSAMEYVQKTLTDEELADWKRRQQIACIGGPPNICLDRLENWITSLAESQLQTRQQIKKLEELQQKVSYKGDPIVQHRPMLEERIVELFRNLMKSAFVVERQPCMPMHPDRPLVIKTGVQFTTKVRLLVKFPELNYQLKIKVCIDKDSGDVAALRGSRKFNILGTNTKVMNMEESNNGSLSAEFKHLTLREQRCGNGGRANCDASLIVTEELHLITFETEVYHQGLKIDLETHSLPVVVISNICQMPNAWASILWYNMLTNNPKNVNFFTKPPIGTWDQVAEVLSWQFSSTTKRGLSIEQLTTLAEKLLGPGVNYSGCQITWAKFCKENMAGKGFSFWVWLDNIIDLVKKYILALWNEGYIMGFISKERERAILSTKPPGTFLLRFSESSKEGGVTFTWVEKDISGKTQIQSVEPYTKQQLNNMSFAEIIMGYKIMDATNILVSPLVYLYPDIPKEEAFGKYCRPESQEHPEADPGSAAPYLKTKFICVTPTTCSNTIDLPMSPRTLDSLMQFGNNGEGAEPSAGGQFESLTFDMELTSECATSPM

Data set [14] concerns the target T1, Tyrosine-protein kinase JAK3 (Homo sapiens). Nature of the data set: Inhibition of JAK3 activation in human U-937 cells assessed as decrease in P-STAT5 incubated for 0 to 24 hrs by Western blot analysis. Particulars: time 0-24 hrs, DDE = dose-dependent effect. It counts as cell-based.
Data set [15] concerns U-937. Nature of the data set: Induction of cell cycle arrest in human U-937 cells assessed as accumulation at G0/G1 phase at 11 nM measured after 24 hrs by propidium iodide staining based flow cytometric analysis (reference value: 62.95%). It counts as functional. A general note: A flow cytometer gives signals particle by particle.
Data set [16] relates to U-937. Nature of the data set: Induction of cell cycle arrest in human U-937 cells assessed as accumulation at G0/G1 phase at 300 nM measured after 24 hrs by propidium iodide staining based flow cytometric analysis (reference value: 62.95%). It counts as functional.
Data set [17] deals with U-937. Nature of the data set: Induction of cell cycle arrest in human U-937 cells assessed as accumulation at S phase at 3.7 nM measured after 24 hrs by propidium iodide staining based flow cytometric analysis (reference value: 15.35%). It counts as functional.
The test system of data set [18] is U-937. Nature of the data set: Induction of cell cycle arrest in human U-937 cells assessed as accumulation at S phase at 33 nM measured after 24 hrs by propidium iodide staining based flow cytometric analysis (reference value: 15.35%). It counts as functional.
Data set [19] relates to U-937. Nature of the data set: Induction of cell cycle arrest in human U-937 cells assessed as accumulation at G2/M phase at 100 nM measured after 24 hrs by propidium iodide staining based flow cytometric analysis (reference value: 21.41%). It counts as functional.
Data set [20] deals with U-937. Nature of the data set: Induction of cell cycle arrest in human U-937 cells assessed as accumulation at G2/M phase at 300 nM measured after 24 hrs by propidium iodide staining based flow cytometric analysis (reference value: 21.41%). It counts as functional.
In data set [21] the test system is U-937. Nature of the data set: Induction of cell cycle arrest in human U-937 cells assessed as downregulation of CDK4 at 0 to 300 nM measured after 24 hrs by western blot analysis. It counts as functional, cell-based. To be noted: dose 0-300 nM.
In data set [22] the target is Receptor-type tyrosine-protein kinase FLT3 (Homo sapiens) (UniProt P36888). Nature of the data set: Inhibition of human FLT3 at 0.5 uM assessed as competition rate relative to control.
Chain of Receptor-type tyrosine-protein kinase FLT3 (Homo sapiens) (P36888 whole entry): as the sequence (P36888 whole entry) above
The target of data set [23] is [Pyruvate dehydrogenase (acetyl-transferring)] kinase isozyme 1, mitochondrial (Homo sapiens) (UniProt Q15118). Nature of the data set: Inhibition of PDK1 (unknown origin) at 0.5 uM assessed as competition rate relative to control.
Data set [24] deals with Tyrosine-protein kinase BTK (Homo sapiens) (UniProt Q06187). Nature of the data set: Inhibition of BTK (unknown origin) at 0.5 uM assessed as competition rate relative to control.
Chain of Tyrosine-protein kinase BTK (Homo sapiens) (Q06187 whole entry): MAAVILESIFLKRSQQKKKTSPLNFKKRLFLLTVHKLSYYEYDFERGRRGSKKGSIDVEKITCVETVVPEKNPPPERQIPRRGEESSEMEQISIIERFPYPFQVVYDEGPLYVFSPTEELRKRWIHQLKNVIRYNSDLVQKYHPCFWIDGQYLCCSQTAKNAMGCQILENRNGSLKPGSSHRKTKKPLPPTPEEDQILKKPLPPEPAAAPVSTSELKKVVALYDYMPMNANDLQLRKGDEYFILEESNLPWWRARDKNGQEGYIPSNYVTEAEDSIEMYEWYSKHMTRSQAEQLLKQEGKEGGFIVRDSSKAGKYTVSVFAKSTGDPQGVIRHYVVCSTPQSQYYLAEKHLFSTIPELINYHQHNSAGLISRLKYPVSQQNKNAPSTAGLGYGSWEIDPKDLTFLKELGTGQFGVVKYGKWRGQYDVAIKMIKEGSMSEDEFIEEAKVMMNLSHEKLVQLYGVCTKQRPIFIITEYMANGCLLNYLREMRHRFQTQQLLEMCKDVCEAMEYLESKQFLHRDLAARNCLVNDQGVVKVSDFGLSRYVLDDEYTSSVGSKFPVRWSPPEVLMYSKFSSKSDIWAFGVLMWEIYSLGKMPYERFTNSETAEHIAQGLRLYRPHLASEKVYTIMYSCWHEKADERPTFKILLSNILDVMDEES

Chain of Tyrosine-protein kinase Blk (Homo sapiens) (P51451 2-505 limits assumed): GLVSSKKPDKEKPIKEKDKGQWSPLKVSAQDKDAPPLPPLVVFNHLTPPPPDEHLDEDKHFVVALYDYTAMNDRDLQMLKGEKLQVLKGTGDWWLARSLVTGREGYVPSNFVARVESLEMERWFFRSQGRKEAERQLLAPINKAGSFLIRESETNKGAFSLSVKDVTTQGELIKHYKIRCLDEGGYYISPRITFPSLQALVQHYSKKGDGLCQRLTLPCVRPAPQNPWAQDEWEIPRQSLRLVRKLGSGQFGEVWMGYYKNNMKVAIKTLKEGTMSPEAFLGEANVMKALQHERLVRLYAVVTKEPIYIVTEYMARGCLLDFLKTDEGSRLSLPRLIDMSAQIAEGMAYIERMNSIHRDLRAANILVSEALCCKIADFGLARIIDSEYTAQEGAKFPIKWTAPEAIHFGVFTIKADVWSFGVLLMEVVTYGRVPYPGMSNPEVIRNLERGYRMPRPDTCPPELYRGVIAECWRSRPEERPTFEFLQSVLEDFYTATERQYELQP

In general, half-life refers to the time in which the quantity being followed falls by half. Higher therefore signals slow loss. As a reminder, the Cmax is the highest concentration seen after dosing. What is called inhibition is the relative decrease from the control value, in per cent. By IC50 is commonly meant the point on the concentration scale where inhibition reaches its midpoint. Lower therefore signals greater potency. `C=CC(=O)Nc1cc(Nc2ncc(Cl)c(O[C@@H]3CO[C@H]4[C@@H]3OC[C@H]4OC)n2)ccc1N(C)CCN(C)C` had a half-life in data set [1] of 58.8 min. The concentration in data set [2] peaked (Cmax) at 911 ng/mL. Moreover, the inhibition in data set [3] was 11%; in [4] it was 9%; in data set [5], 36%; in [8] it was 60%; in [9] it was 71%; in data set [10], 99%. Moreover, the inhibition was 106% in [11]; 114% in data set [12]; “Tde” in data set [13]; “Dde” in [14]; 70% in data set [22]; 40% in [23]. Further, in [24], the inhibition was found to be 40%. The 50% inhibitory concentration (IC50) was 132 nM in data set [6] and 8 nM in data set [7]. Further, the Activity in the data set with U-937 [15] amounted to 62.58%; with U-937 [16] it was 76.88%; in the data set on U-937 [17], 15.23%; in the data set on U-937 [18], 13.62%; in the data set on U-937 [19] it was 17.86%; in the data set on U-937 [20] it was 15.33%. For the same molecule, in the data set with U-937 [21], the result was Active.
